{"source": "paper PMC9698483", "about": "“Berbamine Reduces Chloroquine-Induced Itch in Mice through Inhibition of MrgprX1” (International Journal of Molecular Sciences, 2022)", "key": {"[1]": {"test_system": "ERK1/2 phosphorylation through MrgprA3", "assay": "Immunoblot of ERK1/2 phosphorylation in HEK293T cells expressing MrgprA3", "type": "cell-based, mouse", "conditions": "HEK-MrgprA3 cells, 30 μM BBM for 10 min prior to CQ"}, "[2]": {"set-up": "method as in PMID 29100757", "conditions": "human pharmacokinetic study; cited from earlier work"}, "[3]": {"target": "T1, histamine H4 receptor (H4R) (Homo sapiens, UniProt Q9H3N8)", "T1 construct": "expressed in transfected cells; host or cells: HEK293T", "T1 sequence (Q9H3N8 whole entry, species assumed)": "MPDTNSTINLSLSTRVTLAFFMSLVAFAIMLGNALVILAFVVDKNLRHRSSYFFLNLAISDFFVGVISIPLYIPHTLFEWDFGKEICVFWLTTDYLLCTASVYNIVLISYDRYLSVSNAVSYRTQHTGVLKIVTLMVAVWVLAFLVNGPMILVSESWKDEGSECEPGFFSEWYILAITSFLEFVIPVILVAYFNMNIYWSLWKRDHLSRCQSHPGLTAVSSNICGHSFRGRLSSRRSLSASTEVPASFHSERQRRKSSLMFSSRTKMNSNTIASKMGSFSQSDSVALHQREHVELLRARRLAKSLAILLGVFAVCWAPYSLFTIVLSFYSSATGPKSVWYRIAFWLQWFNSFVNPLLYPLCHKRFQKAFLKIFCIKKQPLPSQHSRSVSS", "assay": "Histamine-induced activation of H4R in H4R-expressing HEK293T cells (calcium)", "type": "cell-based", "conditions": "30 μM compound, 10 min prior to 100 μM histamine", "description": "(§1) To investigate the effect of berbamine on other pruritogenic GPCRs, we observed the effect of berbamine on histamine H1 receptor (H1R), histamine H4 receptor (H4R), MrgprC11, MrgprX4, PAR2, and TGR5.\n(§2) Figure 3 Effects of berbamine on the activity of other pruritogenic GPCRs: (A,B) Effect of berbamine on histamine 1 receptor (H1R) and histamine 4 receptor (H4R). H1R- and H4R-expressing HEK293T cells were pretreated with 30 μM BBM for 10 min prior to 100 μM histamine treatment. […] (C) Effect of berbamine on PAR2. HT29 cells were pretreated with BBM for 10 min prior to 30 μM PAR2-AP treatment. […] (D) Effect of berbamine on MrgprC11. MrgprC11-expressing HEK293T cells were pretreated with BBM for 10 min prior to 100 μM […] treatment. (E) Effect of berbamine on MrgprX4. MrgprX4-expressing HEK293T cells were pretreated with BBM for 10 min prior to 80 μM DCA treatment. (F) Effect of berbamine on TGR5. TGR5 activity was measured using a YFP fluorescence quenching assay. CHO-K1 cells coexpressing TGR5 and a halide sensor YFP were pretreated with BBM and 80 μM DCA for 10 min prior to I^- treatment. Results were summarized as means ± S.E. (n = 6). NTC, nontransfected cells.\n(§3) Intracellular calcium levels were measured using a Fluo-4 NW calcium assay kit (Invitrogen, Carlsbad, CA) as per the manufacturer’s protocol in HEK293T and HT29 cells. […]"}, "[4]": {"target": "T2, MrgprC11 (Mus musculus, UniProt Q8CIP3)", "T2 construct": "expressed in transfected cells; host or cells: HEK293T", "T2 sequence (Q8CIP3 1-322)": "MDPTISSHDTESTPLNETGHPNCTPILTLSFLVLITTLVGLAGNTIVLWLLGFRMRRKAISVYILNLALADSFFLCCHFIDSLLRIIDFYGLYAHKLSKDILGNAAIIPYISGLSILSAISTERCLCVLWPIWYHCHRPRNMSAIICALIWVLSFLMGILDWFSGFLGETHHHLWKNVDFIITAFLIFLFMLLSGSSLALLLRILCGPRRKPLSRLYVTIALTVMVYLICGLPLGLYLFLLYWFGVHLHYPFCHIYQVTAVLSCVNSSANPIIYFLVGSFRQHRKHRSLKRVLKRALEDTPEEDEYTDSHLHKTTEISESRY", "assay": "Activation of MrgprC11 in MrgprC11-expressing HEK293T cells (calcium)", "type": "cell-based", "description": "as §1, §2, §3"}, "[5]": {"test_system": "HEK293T cells", "assay": "Ionomycin-induced increase in intracellular calcium levels in HEK293T cells", "type": "cell-based", "conditions": "10 μM ionomycin, 10 min pretreatment", "description": "To investigate whether berbamine and closantel affect calcium signaling pathways, we observed the effects of berbamine and closantel on CQ- and ionomycin-induced increases in intracellular calcium concentrations in HEK-MrgprX1 and HEK293T cells, respectively.\nFigure 2 Effect of berbamine and closantel on CQ- and ionomycin-induced increases in intracellular calcium levels: (A,B) Intracellular calcium levels were measured using Fluo−4 NW in HEK293T cells expressing MrgprX1. The cells were pretreated with the indicated concentrations of berbamine (BBM) and closantel (CLS) for 10 min prior to treatment with 300 μM CQ. (C) Summary of dose-response (mean ± S.E., n = 6). (D,E) Intracellular calcium levels were increased with 10 μM ionomycin in HEK239T cells. The cells were pretreated with the indicated concentrations of BBM and CLS for 10 min before treatment with ionomycin. (F) Summary of dose–response (mean ± S.E., n = 6).\nIntracellular calcium levels were measured using a Fluo-4 NW calcium assay kit (Invitrogen, Carlsbad, CA) as per the manufacturer’s protocol in HEK293T and HT29 cells. […] After 1 h of incubation, Fluo-4 fluorescence was recorded with a FLUOstar Omega microplate reader equipped with syringe pumps and custom Fluo-4 excitation/emission filters (485/538 nm). […]"}, "[6]": {"test_system": "PAR2-AP-induced itch", "assay": "PAR2-AP-induced pruritus in mice (scratching bouts)", "type": "in vivo, BALB/c mice", "conditions": "30 mg/kg i.p., PAR2-AP 100 μg/50 μL", "description": "To investigate the antipruritic effect of berbamine, we observed the effect of berbamine on pruritogen-induced scratching behavior in BALB/c mice. Mice were transferred to clear cages and treated with berbamine intraperitoneally after a 30 min acclimatization period. Mouse behavior was recorded for 30 min right after the subcutaneous injection of pruritogens to the nape 30 min after berbamine treatment (Figure 7A). […] We further investigated the effect of berbamine on pruritus caused by other pruritogens.\nFigure 7 Effect of berbamine on acute pruritogen-induced pruritus in mice: (A) Scheme of acute pruritogen-induced pruritus mouse model. […] Statistical significance of differences between each group and CQ group was assessed using one-way ANOVA with Tukey’s post hoc test. * p < 0.05, ** p < 0.01, *** p < 0.001. […] Statistical significance of differences was determined using Student’s t-test. […]\n[…] six-week-old BALB/c male mice were purchased from DBL (Chungcheong-do, Republic of Korea), and an additional 1 week was given for accommodation. […] After 30 min, pruritogen compounds (i.e., CQ, histamine, PAR2-AP, and DCA) were subcutaneously administered into the nape, and scratching bouts were recorded for 30 min. […] The total number of scratching bouts was counted by recording the number of scratching bouts in the recorded video over 30 min of observation time."}, "[7]": {"test_system": "CQ-sensitive strain of P. falciparum", "set-up": "method as in doi:10.1002/ddr.430300405", "conditions": "in vitro; read-out: IC50 antimalaria effect, CQ-sensitive strain; cited from earlier work"}}, "data": [{"smiles": "COc1cc2c3cc1Oc1c(OC)c(OC)cc4c1[C@@H](Cc1ccc(O)c(c1)Oc1ccc(cc1)C[C@@H]3N(C)CC2)N(C)CC4", "note": "[berbamine]", "values": [{"measurement": "effect on CQ-induced ERK1/2 phosphorylation through MrgprA3", "setting": "[1]", "value": "significantly reduced"}, {"measurement": "half-life", "setting": "[2]", "value": 39.25, "unit": "h"}, {"measurement": "effect on histamine-induced activation of H4R", "setting": "[3]", "value": "did not affect"}, {"measurement": "effect on PAR2-AP-induced activation of MrgprC11", "setting": "[4]; 30 μM, 10 min prior to 100 μM PAR2-AP", "value": "did not affect"}, {"measurement": "inhibitory effect on the activation of MrgprC11 by BAM8-22", "setting": "[4]; concentrations up to 30 μM, 500 nM BAM8-22", "value": "minimal inhibitory effect"}, {"measurement": "effect on ionomycin-induced increase in intracellular calcium levels", "setting": "[5]", "value": "no effect"}, {"measurement": "effect on total scratching bouts induced by PAR2-AP", "setting": "[6]", "value": "no significant effect"}, {"measurement": "IC50", "setting": "[7]", "value": "0.603 ± 0.047", "unit": "µM"}]}]}
